What was measured:
[1] = target: T1, Type-1 angiotensin II receptor (Bos taurus, UniProt P25104); assay: Displacement of [125 I]-AII (0.2 nM) from bovine adrenal cortical membrane angiotensin II (AII) receptor at 10e-7 M
T1 sequence (P25104 whole entry): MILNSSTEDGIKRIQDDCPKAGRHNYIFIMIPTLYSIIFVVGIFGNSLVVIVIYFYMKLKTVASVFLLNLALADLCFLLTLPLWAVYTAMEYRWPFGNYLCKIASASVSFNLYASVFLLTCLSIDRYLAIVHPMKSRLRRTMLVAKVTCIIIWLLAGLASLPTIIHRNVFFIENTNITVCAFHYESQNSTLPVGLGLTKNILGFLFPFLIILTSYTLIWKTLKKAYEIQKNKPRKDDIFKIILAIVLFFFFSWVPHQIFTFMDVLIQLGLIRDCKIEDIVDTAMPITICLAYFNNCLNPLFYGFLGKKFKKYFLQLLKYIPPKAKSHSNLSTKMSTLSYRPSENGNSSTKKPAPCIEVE

Rattus norvegicus [2] = assay: Inhibitory activity against the pressor response induced by Angiotensin II (AII) in conscious rats, at 1 mg/kg p.o. at 3h; assay type: functional; settings: route oral
Rattus norvegicus [3] = assay: Inhibitory activity against the pressor response induced by angiotensin II (AII) in conscious rats, at 1 mg/kg p.o. at 7 hr; assay type: functional; settings: route oral
Rattus norvegicus [4] = assay: Inhibitory activity against the pressor response induced by Angiotensin II (AII) in conscious rats, at 1 mg/kg p.o. at 7 hr; assay type: functional; settings: route oral
Rattus norvegicus [5] = assay: Dose-dependent reduction of blood pressure in spontaneously hypertensive rats administered orally (antihypertensive effect); assay type: functional; settings: po
Rattus norvegicus [6] = species on record: Rattus norvegicus; assay: pD2 value of compound was determined; assay type: functional
Rattus norvegicus [7] = assay: Tested for dose-dependent inhibition of Angiotensin II (AII)-induced pressor response at more than 0.01 mg/kg, p.o.; assay type: functional; settings: route oral, read-out: ID50 (the source's name)
[8] = Partition coefficient (logP); assay type: physicochemical; settings: octanol/water
[9] = Percent oral bioavailability examined in rats; assay type: ADME, organism-based; settings: rat, in vivo
Rattus norvegicus [10] = assay: Inhibitory activity against the pressor response induced by angiotensin II (AII) in conscious rats, at 1 mg/kg p.o. at 3h; assay type: functional; settings: route oral

Row | IC50 [1] [nM] | Structure (SMILES) | inhibition in vivo at 1 mg/kg (Rattus norvegicus [2]) [%] | inhibition in vivo at 1 mg/kg (Rattus norvegicus [4]) [%] | other results
1 | 310 | CCc1nc2cccc(C(=O)O)c2n1Cc1ccc(-c2ccccc2-c2noc(O)n2)cc1 | 88 | – | inhibition in vivo at 1 mg/kg (Rattus norvegicus [3]): 67%
2 | 260 | CNc1nc2cccc(C(=O)O)c2n1Cc1ccc(-c2ccccc2-c2noc(O)n2)cc1 | 14 | 13 | –
3 | 42 | CCNc1nc2cccc(C(=O)O)c2n1Cc1ccc(-c2ccccc2-c2noc(O)n2)cc1 | 25 | 6 | –
4 | 790 | CCCOc1nc2cccc(C(=O)O)c2n1Cc1ccc(-c2ccccc2-c2noc(O)n2)cc1 | 100 | 100 | –
5 | 480 | CCSc1nc2cccc(C(=O)O)c2n1Cc1ccc(-c2ccccc2-c2noc(O)n2)cc1 | 83 | 100 | –
6 | 620 | CCCCc1nc2cccc(C(=O)O)c2n1Cc1ccc(-c2ccccc2-c2noc(O)n2)cc1 | 68 | 64 | –
7 | 850 | CCCSc1nc2cccc(C(=O)O)c2n1Cc1ccc(-c2ccccc2-c2noc(O)n2)cc1 | 80 | 100 | –
8 | 390 | CSc1nc2cccc(C(=O)O)c2n1Cc1ccc(-c2ccccc2-c2noc(O)n2)cc1 | 100 | 100 | –
9 | 360 | COc1nc2cccc(C(=O)O)c2n1Cc1ccc(-c2ccccc2-c2noc(O)n2)cc1 | 90 | 88 | –
10 | 420 | CCCc1nc2cccc(C(=O)O)c2n1Cc1ccc(-c2ccccc2-c2noc(O)n2)cc1 | 100 | 88 | –
11 | 420 | CCOc1nc2cccc(C(=O)O)c2n1Cc1ccc(-c2ccccc2-c2noc(=O)[nH]2)cc1 [AZILSARTAN] | 100 | 100 | ED25 (Rattus norvegicus [5]): 0.4 mg/kg; pD2 (Rattus norvegicus [6]): 9.93; ED50 (Rattus norvegicus [7]): 0.06 mg/kg; logP [8]: 0.9; bioavailability [9]: 20%
12 | – | CCOc1nc2cccc(C(=O)OC(C)OC(=O)OC3CCCCC3)c2n1Cc1ccc(-c2ccccc2-c2nn[nH]n2)cc1 (stereo not given) [CANDESARTAN CILEXETIL] | – | – | ED25 (Rattus norvegicus [5]): 0.68 mg/kg
13 | – | CCOc1nc2cccc(C(=O)O)c2n1Cc1ccc(-c2ccccc2-c2nnn[nH]2)cc1 [CANDESARTAN] | – | – | inhibition in vivo at 1 mg/kg (Rattus norvegicus [10]): 100%; pD2 (Rattus norvegicus [6]): 9.97; inhibition in vivo at 1 mg/kg (Rattus norvegicus [3]): 92%; logP [8]: 0.32
14 | – | CCCCc1nc(Cl)c(CO)n1Cc1ccc(-c2ccccc2-c2nnn[nH]2)cc1 [LOSARTAN] | – | – | inhibition in vivo at 1 mg/kg (Rattus norvegicus [10]): 21%; inhibition in vivo at 1 mg/kg (Rattus norvegicus [3]): 34%

Source: ChEMBL document CHEMBL1150512, “A new class of angiotensin II receptor antagonists with a novel acidic bioisostere” (Bioorg Med Chem Lett, 1995)
